Test results published in PubChem BioAssay AID434987 (Southern Research Specialized Biocontainment Screening …, 2010).
Active and inactive are the calls of the source. How the calls were made is not given here.

Test system: M. tuberculosis H37Rv growth inhibition with meropenem
Test: dose response, H37Rv, with and without meropenem (AID 434987);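 further: growth over 7 days at 37 °C before Alamar Blue read on day 9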
[1] = M. tuberculosis H37Rv growth inhibition, measured here: IC50 without meropenem
[2] = M. tuberculosis H37Rv growth inhibition, measured here: IC90 without meropenem
[3] = measured here: IC90 with meropenem

| SMILES | IC50 | IC50 [1] [µM] | IC90 [2] [µM] | IC90 [3] [µM] |
| --- | --- | --- | --- | --- |
| Cc1nnc(SCc2ccc(C(=O)Nc3cc(Cl)ccc3C)cc2)s1 | > 100 µM (inactive) | > 100 | > 100 | > 100 |
| CN(C)S(=O)(=O)c1ccc(NC(=O)c2cc3ccccc3o2)cc1 | > 100 µM (inactive) | > 100 | > 100 | > 100 |
| CCCN1C(=O)c2ccc(C(=O)Nc3cc(C)on3)cc2C1=O | > 100 µM (inactive) | > 100 | > 100 | > 100 |
| C/C(=N/NC(=O)c1cccs1)c1ccc(NC(=O)COc2ccc(Cl)cc2)cc1 | > 100 µM (inactive) | > 100 | > 100 | > 100 |
| Cc1ccc(C(=O)Nc2nc3ccccc3s2)s1 | 43.6 µM (inactive) | > 100 | > 100 | > 100 |
| O=C(CSC1CS(=O)(=O)c2cc([N+](=O)[O-])ccc21)NNC(=O)c1ccccc1 (configuration not stated) | 11.8 µM | 89 | 94.3 | 13.3 |
| C[C@H](NC(=O)c1[nH]cnc1C(=O)Nc1cccc(Cl)c1)c1ccccc1 | 3.59 µM | > 100 | > 100 | > 100 |
| C=CCSc1nccc(-c2nn(-c3ccc(C)cc3)ccc2=O)n1 | 94.1 µM (inactive) | > 100 | > 100 | > 100 |
| COc1ccccc1C(=O)Nc1sc2c(c1C(=O)NCc1ccco1)CCCC2 | > 100 µM (inactive) | > 100 | > 100 | > 100 |
| O=C(NCc1nc2ncc(Br)cc2[nH]1)c1ccccc1 | 49.2 µM (inactive) | 94 | > 100 | 54.9 |
| NC(N)=NS(=O)(=O)c1ccc(N)cc1 | > 100 µM (inactive) | > 100 | > 100 | > 100 |
| Cc1cc(NC(=O)CSc2ncnc3c2cnn3-c2ccccc2)no1 | > 100 µM (inactive) | > 100 | > 100 | > 100 |
| CC(C)NC(=O)C(=O)NNC(=O)C12CC3CC(CC(C3)C1)C2 | 15.6 µM | 81.8 | > 100 | > 100 |
| COc1ccc2nc(NC(=O)NC3CCCCC3)sc2c1 | > 100 µM (inactive) | > 100 | > 100 | > 100 |
| O=C(Nc1ccc2oc(-c3ccc(Cl)c(Cl)c3)nc2c1)c1ncn[nH]1 | 61.9 µM (inactive) | 79.8 | > 100 | > 100 |
| Cc1n[nH]c(C)c1CCCOc1ccccc1 | 24.1 µM (inactive) | 39.5 | > 100 | > 100 |
| N#Cc1c(C(F)(F)F)cc(-c2ccccc2)nc1SCC(=O)Nc1sc2c(c1C#N)CCC2 | > 100 µM (inactive) | > 100 | > 100 | > 100 |
| CCOC(=O)c1nn(-c2ccc(F)cc2)c2nc(Nc3ccccc3)cc(=O)n12 | > 100 µM (inactive) | > 100 | > 100 | > 100 |
| Clc1ccc(/C=N/NC2=Nc3cccc4cccc2c34)cc1 | > 100 µM (inactive) | > 100 | > 100 | > 100 |
| CS(=O)(=O)N(Cc1ccc(Cl)cc1)c1ccc(C(=O)NCCC2=CCCCC2)cc1 | > 100 µM (inactive) | > 100 | > 100 | > 100 |

| SMILES | IC50 | IC50 [1] [µM] | IC90 [2] [µM] | IC90 [3] [µM] |
| --- | --- | --- | --- | --- |
| CCOC(=O)c1cc(-c2ccccc2)sc1NC(=O)C(C)N1C(=O)NC(C)(c2ccc(Cl)cc2)C1=O (configuration not stated) | > 100 µM (inactive) | > 100 | > 100 | > 100 |
| NS(=O)(=O)c1cccnc1Nc1c(Cl)cccc1Cl | > 100 µM (inactive) | > 100 | > 100 | > 100 |
| COc1ccc(OC(=O)c2cccc([N+](=O)[O-])c2)c(C(=O)/C=C/c2cccs2)c1 | 27.5 µM | 68.3 | > 100 | > 100 |
| Cc1cccc(Cl)c1NC(=S)NN | 36 µM (inactive) | 44.5 | 59.5 | 55.1 |
| O=C(Nc1nnc(-c2ccc3c(c2)OCCO3)o1)C1CCCCC1 | 16.3 µM | 55 | > 100 | > 100 |
| Cn1ccnc1C(=O)Cc1ccc([N+](=O)[O-])cc1 | 7.78 µM | 44.1 | 48.9 | 22.6 |
| CCOC(=O)c1sc(NC(=O)CSc2n[nH]c(CC(C)C)n2)nc1C | 19.3 µM (inactive) | 46.5 | > 100 | > 100 |
| N#Cc1ccc(NC(=O)COC(=O)C2=COCCO2)cc1 | > 100 µM (inactive) | > 100 | > 100 | > 100 |
| C=C(C)COc1ccc2c(C)c(C)c(=O)oc2c1OCC(=C)C | 79.2 µM (inactive) | > 100 | > 100 | > 100 |
| O=C(NNC(=O)c1ccc(Oc2cc(Cl)cc(Cl)c2)o1)c1ccccc1 | > 100 µM (inactive) | > 100 | > 100 | > 100 |
| O=C(Nc1cccc(Cl)c1N1CCOCC1)c1ccc([N+](=O)[O-])o1 | 0.909 µM | 11 | > 100 | 38.2 |
| COc1ccc2oc(C(=O)Nc3nc4ccccc4[nH]3)c(C)c2c1 | 1.7 µM | 36.9 | > 100 | > 100 |
| CCC(=O)NC(=S)Nc1ccc(NC(=O)c2ccccc2[N+](=O)[O-])cc1 | > 100 µM (inactive) | > 100 | > 100 | > 100 |
| Cc1cc2c(=O)oc(-c3ccc(Br)cc3)nc2s1 | > 100 µM (inactive) | > 100 | > 100 | > 100 |
| CC1(C)C[C@@H]1C(=O)N/C(=C\CCCCSC[C@H](N)C(=O)O)C(=O)O | > 100 µM (inactive) | > 100 | > 100 | > 100 |
| Cc1ccc(C)c(-n2c(-c3ccco3)n[nH]c2=S)c1 | 14 µM | 48.9 | > 100 | > 100 |
| O=C(CCC(=O)Nc1ccccc1)NNC(=O)c1ccco1 | > 100 µM (inactive) | > 100 | > 100 | > 100 |
| O=C(c1ccc(-c2ccc(Cl)cc2)o1)N1CCN(S(=O)(=O)c2cccs2)CC1 | 95.2 µM (inactive) | > 100 | > 100 | 99.6 |
| Cc1onc(-c2ccccc2Cl)c1C(=O)NCc1ccc2c(c1)cc(C)n2C | 16.6 µM (inactive) | 39 | 58.5 | 29.4 |
| CCOC(=O)c1ccc(C(=O)NNC(=O)C2CC=CCC2)cc1 (configuration not stated) | 8.57 µM (inactive) | 20.9 | 31.9 | 40 |

| SMILES | IC50 | IC50 [1] [µM] | IC90 [2] [µM] | IC90 [3] [µM] |
| --- | --- | --- | --- | --- |
| COc1cccc(/C=N/NC(=O)c2cnccn2)c1O | 2.58 µM | 44.8 | > 100 | 13.9 |
| COc1ccc(NC(=O)c2cc(C)nc3ccccc23)c(OC)c1 | 11.7 µM | 31.6 | 69.1 | 12.9 |
| CC(=O)Nc1scc(C)c1-c1nc2ccccc2s1 | > 100 µM (inactive) | > 100 | > 100 | > 100 |
| O=C(COc1ccccc1)Nc1cc(C(F)(F)F)ccc1N1CCCC1 | 46.6 µM (inactive) | > 100 | > 100 | > 100 |
| Cc1cc(=O)[nH]c(N/N=C/c2c(O)n(-c3ccccc3)c(=O)c3ccccc23)n1 | 1.87 µM | 7.61 | > 100 | 13.6 |
| C[C@]12CC[C@@H]3c4ccc(OS(=O)(=O)O)cc4CC[C@H]3[C@@H]1CCC2=O | > 100 µM (inactive) | > 100 | > 100 | > 100 |
| COc1ccccc1N1CCN(S(=O)(=O)c2ccc3nc(-c4ccccc4)[nH]c3c2)CC1 | > 100 µM (inactive) | > 100 | > 100 | > 100 |
| C(=N\n1cnnc1)/c1ccc(-c2ccccc2)cc1 | > 100 µM (inactive) | > 100 | > 100 | > 100 |
| Cc1cc(N2CCN(c3ccccc3)CC2)nc2ccccc12 | > 100 µM (inactive) | > 100 | > 100 | > 100 |
| Cc1ccc(SCc2c(-c3ccccc3)nn(C)c2Cl)cc1 | 20.9 µM | 58.7 | > 100 | > 100 |
| c1ccc2nc(-c3nc4ccccc4o3)ccc2c1 | 43.9 µM (inactive) | > 100 | > 100 | > 50 |
| O=c1[nH]c(CSc2nnc3ccccn23)nc2ccccc12 | > 100 µM (inactive) | > 100 | > 100 | > 100 |
| Clc1ccc(-c2csc3ncnc(N4CCc5ccccc5C4)c23)cc1 | 95.4 µM (inactive) | > 100 | > 100 | > 100 |
| CC(C)CCSc1nc(N2CCOCC2)c2c(c1C#N)CC(C)(C)OC2 | 78.2 µM (inactive) | > 100 | > 100 | > 100 |
| CC(C)CCN1CC(O)=C(c2nc3ccccc3[nH]2)C1=N | 6.68 µM | 73 | > 100 | > 100 |
| CCC(=O)N1CCN(c2ccc(NC(=S)NC(=O)c3ccc(OC)c([N+](=O)[O-])c3)cc2)CC1 | 40.2 µM (inactive) | 79.6 | > 100 | 67.8 |
| CCOC(=O)/C(=N\Nc1ccccc1)c1csc(Nc2ccc(C)cc2)n1 | > 100 µM (inactive) | > 100 | > 100 | > 100 |
| COC(=O)c1c(NC(=O)c2ccc(C)cc2)csc1C | 48.9 µM (inactive) | 84 | > 100 | > 100 |
